{"source": "patent US20210386720A1", "about": "“METHODS OF TREATING CNS TUMORS WITH TESETAXEL” (Odonate Therapeutics, Inc., priority 2018, published 2021)", "key": {"[1]": {"experiment": "In vivo tissue distribution of 14C-tesetaxel in dogs", "parameters": "species or system dog", "conditions": "for t1/2 / Cerebellum / Cerebrum / Plasma: 0.6 mg/kg; for Cerebellum / Cerebrum / Plasma: 14 days post-dose, radioactivity", "experimental": "(§1) The in vivo tissue distribution of tesetaxel was previously investigated in mice treated with ^14C-tesetaxel at 4 mg/kg and sacrificed between 1-168 hours.^1 Two additional studies have been conducted in dogs and monkeys.\n(§2) Dogs and monkeys were dosed at 0.6 mg/kg and 1 mg/kg of ^14C-tesetaxel, respectively, and tissue distribution was assessed at 336 hours post-dose (14 days). These doses equate to ˜44% of the 27 mg/m^2 dose in an ongoing Phase 3 clinical study. In vivo radioactivity concentrations in the cerebrum and cerebellum were compared to plasma concentrations and mean tumor GI50 (concentration resulting in 50% tumor growth inhibition) determined by MTT assay in 23 tumor cell lines."}, "[2]": {"experiment": "In vivo tissue distribution of 14C-tesetaxel in monkeys", "parameters": "species or system monkey", "conditions": "for t1/2 / Cerebellum / Cerebrum / Plasma: 1 mg/kg; for Cerebellum / Cerebrum / Plasma: 14 days post-dose, radioactivity", "experimental": "as §1, §2"}, "[3]": {"experiment": "Terminal plasma half-life in humans"}, "[4]": {"experiment": "Human plasma and CNS tissue binding by rapid equilibrium dialysis", "assay_type": "in vitro ADME"}, "taxane-resistant tumors": {"tested_on": "taxane-resistant tumors", "experiment": "Nonclinical studies of activity against taxane-resistant tumors"}, "[5]": {"conditions": "dog, single oral dose of 0.6 mg/kg, N=3"}, "[6]": {"conditions": "monkey, single oral dose of 1 mg/kg, N=3"}}}
{"smiles": "CC(=O)O[C@@]12CO[C@@H]1CC[C@@]1(C)[C@@H]3O[C@H](CN(C)C)O[C@@H]3C3=C(C)[C@@H](OC(=O)[C@H](O)[C@@H](NC(=O)OC(C)(C)C)c4ncccc4F)C[C@@](O)([C@@H](OC(=O)c4ccccc4)[C@@H]12)C3(C)C", "note": "[Tesetaxel]", "values": [{"measurement": "t1/2", "setting": "[1]; dog, IV", "value": 72, "unit": "h"}, {"measurement": "Cerebellum", "setting": "[1]; dog, IV", "value": "7.8 ± 0.6", "unit": "ng eq/g"}, {"measurement": "Cerebrum", "setting": "[1]; dog, IV", "value": "16.8 ± 2.9", "unit": "ng eq/g"}, {"measurement": "Plasma", "setting": "[1]; dog, IV", "value": "0.5 ± 0.0", "unit": "ng eq/mL"}, {"measurement": "t1/2", "setting": "[1]; dog, PO", "value": 96, "unit": "h"}, {"measurement": "Cerebellum", "setting": "[1]; dog, PO", "value": "6.1 ± 1.9", "unit": "ng eq/g"}, {"measurement": "Cerebrum", "setting": "[1]; dog, PO", "value": "10.9 ± 4.0", "unit": "ng eq/g"}, {"measurement": "Plasma", "setting": "[1]; dog, PO", "value": "0.9 ± 0.1", "unit": "ng eq/mL"}, {"measurement": "Cerebrum/Plasma", "setting": "[1]; dog, single oral dose of 0.6 mg/kg, 14 days after dosing", "value": 12, "unit": "x"}, {"measurement": "14C-Tesetaxel Radioactivity Concentration 14 Days after Dosing, Cerebrum (Mean ± SD)", "setting": "[1]; [5]", "value": "10.9 ± 4.0 ng eq./g or mL"}, {"measurement": "14C-Tesetaxel Radioactivity Concentration 14 Days after Dosing, Plasma (Mean ± SD)", "setting": "[1]; [5]", "value": "0.9 ± 0.1 ng eq./g or mL"}, {"measurement": "CNS penetration", "setting": "[1]; dogs, oral (PO) or intravenous (IV) administration", "value": "CNS penetration was observed"}, {"measurement": "t1/2", "setting": "[2]; monkey, IV", "value": 72, "unit": "h"}, {"measurement": "Cerebellum", "setting": "[2]; monkey, IV", "value": "18 ± 1.0", "unit": "ng eq/g"}, {"measurement": "Cerebrum", "setting": "[2]; monkey, IV", "value": "21 ± 2.0", "unit": "ng eq/g"}, {"measurement": "Plasma", "setting": "[2]; monkey, IV", "value": "1.0 ± 0.0", "unit": "ng eq/mL"}, {"measurement": "t1/2", "setting": "[2]; monkey, PO", "value": 52.8, "unit": "h"}, {"measurement": "Cerebellum", "setting": "[2]; monkey, PO", "value": "4.4 ± 1.7", "unit": "ng eq/g"}, {"measurement": "Cerebrum", "setting": "[2]; monkey, PO", "value": "6.5 ± 3.8", "unit": "ng eq/g"}, {"measurement": "Plasma", "setting": "[2]; monkey, PO", "value": "0.9 ± 0.2", "unit": "ng eq/mL"}, {"measurement": "Cerebrum/Plasma", "setting": "[2]; monkey, single oral dose of 1 mg/kg, 14 days after dosing", "value": 7, "unit": "x"}, {"measurement": "14C-Tesetaxel Radioactivity Concentration 14 Days after Dosing, Cerebrum (Mean ± SD)", "setting": "[2]; [6]", "value": "6.5 ± 3.8 ng eq./g or mL"}, {"measurement": "14C-Tesetaxel Radioactivity Concentration 14 Days after Dosing, Plasma (Mean ± SD)", "setting": "[2]; [6]", "value": "0.9 ± 0.2 ng eq./g or mL"}, {"measurement": "CNS penetration", "setting": "[2]; monkeys, oral (PO) or intravenous (IV) administration", "value": "CNS penetration was observed"}, {"measurement": "Terminal plasma half-life (t1/2)", "setting": "[3]", "value": "~190", "unit": "h"}, {"measurement": "CNS tissue binding", "setting": "[4]; CNS tissue", "value": 98.9, "unit": "%"}, {"measurement": "Human plasma binding", "setting": "[4]; plasma", "value": 98.2, "unit": "%"}, {"measurement": "Activity against taxane-resistant tumors", "setting": "taxane-resistant tumors", "value": "retain activity against taxane-resistant tumors"}]}
